Results from US3939143A, “1-N-isoserylkanamycins and the production thereof” (Zaidan Hojin Biseibutsu Kagaku Kenkyu Kai, priority 1973, dated 1976).
Where two headings read alike, the source gives them in different places.

Key:
[1] = tested on: Bacillus subtilis PCI 219; test: Minimum inhibitory concentration, serial dilution on nutrient agar; format: cell-based; settings: read-out: Minimum Inhibitory Concentration
[2] = tested on: Salmonella enteritidis 1891; test: as above; format: cell-based; settings: Salmonella enterica, read-out: Minimum Inhibitory Concentration
[3] = tested on: Mycobacterium smegmatis ATCC 607; test: as above; format: cell-based; settings: Mycolicibacterium smegmatis, read-out: Minimum Inhibitory Concentration
[4] = tested on: Bacillus subtilis NRRL B-558; test: as above; format: cell-based; settings: read-out: Minimum Inhibitory Concentration
[5] = tested on: Staphylococcus aureus Terajima; test: as above; format: cell-based; settings: read-out: Minimum Inhibitory Concentration
[6] = tested on: Escherichia coli JR66/W677; test: as above; format: cell-based; settings: read-out: Minimum Inhibitory Concentration
[7] = tested on: Pseudomonas aeruginosa 99; test: as above; format: cell-based; settings: read-out: Minimum Inhibitory Concentration
[8] = tested on: Escherichia coli NIHJ; test: as above; format: cell-based; settings: read-out: Minimum Inhibitory Concentration
[9] = tested on: Staphylococcus aureus FDA 209P; test: as above; format: cell-based; settings: FDA209P, read-out: Minimum Inhibitory Concentration
[10] = tested on: Escherichia coli LA290 R56; test: as above; format: cell-based; settings: LA290R56, 18 h, read-out: Minimum Inhibitory Concentration
[11] = tested on: drug-resistant strains of Escherichia coli and Pseudomonas aeruginosa; test: antibacterial activity against drug-resistant strains, in words; format: cell-based
[12] = tested on: Escherichia coli K-12 ML 1410; test: Minimum inhibitory concentration, serial dilution on nutrient agar; format: cell-based; settings: read-out: Minimum Inhibitory Concentration
[13] = tested on: Escherichia coli K-12 ML 1629; test: as above; format: cell-based; settings: read-out: Minimum Inhibitory Concentration
[14] = tested on: Escherichia coli K-12; test: as above; format: cell-based; settings: read-out: Minimum Inhibitory Concentration
[15] = tested on: Shigella sonnei JS 11746; test: as above; format: cell-based; settings: JS11746, 37°C, 18 hours
Experimental: (§1) The minimum inhibitory concentrations (mcg/ml) of 1-N-DL-isoserylkanamycin,1-N-DL-isoserylkanamycin B and 1-N-DL-isoseryl-3',4'-dideoxykanamycin B against various microorganisms were determined according to the serial dilution method using nutrient agar medium at 37°C, the estimation being effected after 18 hours incubation. For comparison purposes, the minimum inhibitory concentrations of kanamycin, kanamycin B and 3',4'-dideoxykanamycin B were also determined in the same manner and under the same conditions as mentioned above.
(§2) The antibacterial spectra of 1-N-DL-isoseryl-kanamycin (abbreviated as 1-IS-KM), 1-N-DL-isoseryl-kanamycin B (abbreviated as 1-IS-KMB) and 1-N-DL-isoseryl-3',4'-dideoxykanamycin B (abbreviated as 1-IS-DKB) are shown in the following table together with those of kanamycin (abbreviatedas KM), kanamycin B (abbreviated as KMB) and 3',4'-dideoxykanamycin B (abbreviated as DKB).

[16] = tested on: Escherichia coli K-12 ML 1630; test: as above; format: cell-based; settings: K12ML1630, 37°C, 18 hours
Experimental: as §1, §2

[17] = tested on: Pseudomonas aeruginosa TI-13; test: as above; format: cell-based; settings: TI13, 37°C, 18 hours
Experimental: as §1, §2

[18] = tested on: Shigella flexneri 4b JS 11811; test: as above; format: cell-based; settings: 4BJS11811, 37°C, 18 hours
Experimental: as §1, §2

[19] = tested on: Pseudomonas aeruginosa A3; test: as above; format: cell-based; settings: 37°C, 18 hours
Experimental: as §1, §2

[20] = tested on: Proteus vulgaris OX 19; test: as above; format: cell-based; settings: read-out: Minimum Inhibitory Concentration
[21] = tested on: Staphylococcus aureus Smith; test: as above; format: cell-based; settings: read-out: Minimum Inhibitory Concentration
[22] = tested on: Escherichia coli LA290 R64; test: as above; format: cell-based; settings: LA290R64, 18 h, read-out: Minimum Inhibitory Concentration
[23] = tested on: Shigella dysenteriae JS 11910; test: as above; format: cell-based; settings: JS11910, 18 h, read-out: Minimum Inhibitory Concentration
[24] = tested on: Bacillus cereus ATCC 10702; test: as above; format: cell-based; settings: read-out: Minimum Inhibitory Concentration
[25] = tested on: Salmonella typhosa T-63; test: as above; format: cell-based; settings: Salmonella enterica, 18 h, read-out: Minimum Inhibitory Concentration
[26] = acute toxicity upon intravenous injection in mice; format: in vivo; settings: mouse, in vivo; intravenous injection, mice
[27] = tested on: Klebsiella pneumoniae 22 No. 3038; test: Minimum inhibitory concentration, serial dilution on nutrient agar; format: cell-based; settings: read-out: Minimum Inhibitory Concentration
[28] = tested on: Corynebacterium bovis 1810; test: as above; format: cell-based; settings: read-out: Minimum Inhibitory Concentration
[29] = tested on: Escherichia coli LA290 R55; test: as above; format: cell-based; settings: LA290R55, 18 h, read-out: Minimum Inhibitory Concentration
[30] = tested on: Pseudomonas aeruginosa GN315; test: as above; format: cell-based; settings: read-out: Minimum Inhibitory Concentration
[31] = tested on: Bacillus anthracis; test: microbe, parasite or virus in culture; format: cell-based; settings: 18 h, read-out: Minimum Inhibitory Concentration
[32] = tested on: Pseudomonas aeruginosa No.12; test: Minimum inhibitory concentration, serial dilution on nutrient agar; format: cell-based; settings: read-out: Minimum Inhibitory Concentration
[33] = tested on: Escherichia coli W677; test: as above; format: cell-based; settings: read-out: Minimum Inhibitory Concentration
[34] = tested on: gram-negative and gram-positive bacteria; test: antibacterial activity, in words; format: cell-based; settings: gram-negative and gram-positive bacteria sensitive to kanamycins
Experimental: as §1, §2

[35] = tested on: Klebsiella pneumoniae PCI 602; test: Minimum inhibitory concentration, serial dilution on nutrient agar; format: cell-based; settings: read-out: Minimum Inhibitory Concentration
[36] = tested on: Sarcina lutea PCI 1001; test: as above; format: cell-based; settings: Micrococcus luteus, read-out: Minimum Inhibitory Concentration
[37] = tested on: Escherichia coli K-12 ML 1410 R81; test: as above; format: cell-based; settings: 18 h, read-out: Minimum Inhibitory Concentration
[38] = Pseudomonas aeruginosa, 99, 18 h
[39] = Corynebacterium bovis, 1810, 37°C, 18 hours
[40] = Corynebacterium bovis, 1810, 18 h

NCC(O)C(=O)N[C@@H]1C[C@H](N)[C@@H](O[C@H]2O[C@H](CN)CC[C@H]2N)[C@H](O)[C@H]1O[C@H]1O[C@H](CO)[C@@H](O)[C@H](N)[C@H]1O (mixture of isomers) [1-IS-DKB, 1-N-DL-isoseryl-3',4'-dideoxykanamycin B]
0.39 µg/mL: MIC ([2]; 37°C, 18 hours) | MIC [10] | MIC [22] | MIC ([35]; PCI602, 37°C, 18 hours)
3.13 µg/mL: MIC ([6]; JR66/W677, 18 h) | MIC [7, 38] | MIC [15] | MIC [17] | MIC [18] | MIC [19] | MIC [23]
0.2 µg/mL: MIC ([20]; OX19, 37°C, 18 hours)
12.5 µg/mL: MIC ([30]; GN315, 37°C, 18 hours)
high antibacterial activity: antibacterial activity [11] | antibacterial activity [34]
0.78 µg/mL: MIC ([9]; 37°C, 18 hours) | MIC [25] | MIC [28, 39] | MIC ([33]; W677, 37°C, 18 hours)
< 0.2 µg/mL: MIC ([1]; PCI219, 37°C, 18 hours) | MIC ([3]; ATCC607, 37°C, 18 hours) | MIC ([4]; NRRLB558, 37°C, 18 hours) | MIC ([5]; 37°C, 18 hours) | MIC ([21]; 37°C, 18 hours) | MIC [31]
1.56 µg/mL: MIC ([8]; 37°C, 18 hours) | MIC ([12]; K12ML1410, 37°C, 18 hours) | MIC ([13]; K12ML1629, 37°C, 18 hours) | MIC ([14]; K12, 37°C, 18 hours) | MIC [16] | MIC ([24]; ATCC10702, 37°C, 18 hours) | MIC ([27]; 22NO.3038, 37°C, 18 hours) | MIC [29] | MIC ([32]; NO.12, 37°C, 18 hours) | MIC ([36]; PCI1001, 37°C, 18 hours)
> 100 mg/kg: LD50 [26]

NCC(O)C(=O)N[C@@H]1C[C@H](N)[C@@H](O[C@H]2O[C@H](CN)[C@@H](O)[C@H](O)[C@H]2N)[C@H](O)[C@H]1O[C@H]1O[C@H](CO)[C@@H](O)[C@H](N)[C@H]1O (mixture of isomers) [1-IS-KMB, 1-N-DL-isoserylkanamycin B]
50 µg/mL: MIC ([30]; GN315, 37°C, 18 hours)
high antibacterial activity: antibacterial activity [11] | antibacterial activity [34]
0.78 µg/mL: MIC ([2]; 37°C, 18 hours) | MIC ([3]; ATCC607, 37°C, 18 hours) | MIC [10] | MIC ([20]; OX19, 37°C, 18 hours) | MIC [22] | MIC [25] | MIC ([33]; W677, 37°C, 18 hours) | MIC ([35]; PCI602, 37°C, 18 hours)
< 0.2 µg/mL: MIC ([1]; PCI219, 37°C, 18 hours) | MIC ([4]; NRRLB558, 37°C, 18 hours) | MIC ([5]; 37°C, 18 hours) | MIC ([21]; 37°C, 18 hours) | MIC [31]
> 100 mg/kg: LD50 [26]
12.5 µg/mL: MIC ([6]; JR66/W677, 37°C, 18 hours)
3.13 µg/mL: MIC ([8]; 18 h) | MIC ([13]; K12ML1629, 18 h) | MIC [16] | MIC [18] | MIC [37]
1.56 µg/mL: MIC ([9]; 18 h) | MIC ([12]; K12ML1410, 37°C, 18 hours) | MIC ([14]; K12, 37°C, 18 hours) | MIC ([24]; ATCC10702, 37°C, 18 hours) | MIC [28, 39] | MIC [29]
6.25 µg/mL: MIC [7, 38] | MIC [15] | MIC [17] | MIC [19] | MIC [23] | MIC ([27]; 22NO.3038, 18 h) | MIC ([32]; NO.12, 18 h) | MIC ([36]; PCI1001, 18 h)

NCC(O)C(=O)N[C@@H]1C[C@H](N)[C@@H](O[C@H]2O[C@H](CN)[C@@H](O)[C@H](O)[C@H]2O)[C@H](O)[C@H]1O[C@H]1O[C@H](CO)[C@@H](O)[C@H](N)[C@H]1O (mixture of isomers) [1-IS-KM, 1-N-DL-isoserylkanamycin]
3.12 µg/mL: MIC ([36]; PCI1001, 37°C, 18 hours)
< 0.2 µg/mL: MIC ([1]; PCI219, 37°C, 18 hours) | MIC ([4]; NRRLB558, 37°C, 18 hours) | MIC ([5]; 37°C, 18 hours) | MIC [31]
> 100 µg/mL: MIC ([30]; GN315, 37°C, 18 hours)
high antibacterial activity: antibacterial activity [11] | antibacterial activity [34]
6.25 µg/mL: MIC ([7]; Pseudomonas aeruginosa, 99, 37°C, 18 hours)
0.78 µg/mL: MIC ([2]; 37°C, 18 hours) | MIC ([9]; 37°C, 18 hours) | MIC [10] | MIC ([14]; K12, 37°C, 18 hours) | MIC [22] | MIC ([24]; ATCC10702, 37°C, 18 hours) | MIC [25] | MIC ([32]; NO.12, 37°C, 18 hours) | MIC ([33]; W677, 37°C, 18 hours)
1.56 µg/mL: MIC ([8]; 18 h) | MIC ([12]; K12ML1410, 18 h) | MIC ([13]; K12ML1629, 18 h) | MIC [15] | MIC [16] | MIC [37] | MIC ([27]; 22NO.3038, 18 h) | MIC [28, 40] | MIC [29]
0.39 µg/mL: MIC ([3]; ATCC607, 37°C, 18 hours) | MIC ([20]; OX19, 37°C, 18 hours) | MIC ([35]; PCI602, 37°C, 18 hours)
3.13 µg/mL: MIC ([6]; JR66/W677, 18 h) | MIC [17] | MIC [18] | MIC [19] | MIC [23]
> 200 mg/kg: LD50 [26]
0.2 µg/mL: MIC ([21]; 37°C, 18 hours)

NC[C@H]1O[C@H](O[C@H]2[C@H](O)[C@@H](O[C@H]3O[C@H](CO)[C@@H](O)[C@H](N)[C@H]3O)[C@H](N)C[C@@H]2N)[C@H](N)[C@@H](O)[C@@H]1O [KMB, kanamycin B, reference compound]
100 µg/mL: MIC [17]
12.5 µg/mL: MIC [29] | MIC ([32]; NO.12, 18 h)
< 0.2 µg/mL: MIC ([1]; PCI219, 18 h) | MIC ([4]; NRRLB558, 18 h) | MIC ([5]; 18 h) | MIC ([21]; 18 h) | MIC [31]
50 µg/mL: MIC [19]
0.78 µg/mL: MIC ([3]; ATCC607, 18 h) | MIC ([8]; 18 h) | MIC ([12]; K12ML1410, 18 h) | MIC ([14]; K12, 18 h) | MIC ([20]; OX19, 18 h) | MIC ([24]; ATCC10702, 18 h) | MIC ([35]; PCI602, 18 h)
0.2 µg/mL: MIC [25]
> 100 µg/mL: MIC ([6]; JR66/W677, 18 h) | MIC [7, 38] | MIC ([13]; K12ML1629, 18 h) | MIC [16] | MIC [37] | MIC ([27]; 22NO.3038, 18 h) | MIC ([30]; GN315, 18 h)
1.56 µg/mL: MIC ([2]; 18 h) | MIC [15] | MIC [28, 40] | MIC ([36]; PCI1001, 18 h)
0.39 µg/mL: MIC ([9]; 18 h) | MIC ([33]; W677, 18 h)
3.13 µg/mL: MIC [10] | MIC [18] | MIC [22] | MIC [23]
